# Measured values reported in PMC3788796, “The Antimicrobial Domains of Wheat Puroindolines Are Cell-Penetrating Peptides with Possible Intracellular Mechanisms of Action” (PLoS ONE, 2013).
# Several values for one entry are separate records, joined by “and”; a condition that tells them apart may be missing. Identical values can stand only once.
# Assays:
# E. coli cells = conditions: data from previous work; cited from earlier work
# [1] = Calcein dye leakage from mammalian-mimicking LUVs; assay type: biochemical; conditions: for % Calcein leakage from DOPC LUVs: LUVs 10 µM phospholipid, 10 mM Tris, 100 mM NaCl pH 7.4, 5 min, fluorescence 496/515 nm, no-peptide control 28.0, average of duplicate experiments
# Procedure: (§1) A calcein leakage assay as previously described was performed to determine the effects of PIN-based peptides on the permeability of synthetic large unilamellar vesicles (LUVs), designed to mimic bacterial and mammalian cell membranes. The phospholipids used were DOPC (1,2-dioleoyl-sn-glycero-3-phosphocholine), with zwitterionic head groups and DOPG (1,2-dioleoyl-sn-glycerol-3-[phosphor-rac-(1-glycerol)]), with negatively charged headgroups (Avanti® Polar lipids, Alabaster, USA). These were used to make DOPC:DOPG (1∶3) LUVs to mimic bacterial cell membranes, or DOPC only, to mimic mammalian cell membranes. Calcein-entrapped LUVs were prepared by the extrusion method using an Avanti mini extrusion apparatus (Avanti® Polar Lipids, Alabaster, USA). The DOPC:DOPG (a 1∶3 mixture) or DOPC were dissolved in chloroform (25 mg/mL) and aliquoted into glass test tubes to give a concentration of 2.6 mM when resuspended in 2 mL buffer. Chloroform was evaporated under a stream of N2 and the lipid films were dried overnight under vacuum. The films were then resuspended in 2.0 mL of 70 mM calcein buffer (in 10 mM Tris-HCl, pH 7.4) and incubated at room temperature for 30 minutes. To increase entrapment of the dye, five repeated freeze\thaw cycles were used by placing the vial in liquid N2 and then a warm water bath (37°C). The lipid mixture was then extruded through the mini-extruder 10 times through two stacked 0.1 µm pore-size filters. Free calcein was removed by centrifugation (10, 000×g, 10 min) three times and washing with 10 mM Tris, 100 mM NaCl buffer (pH 7.4). Standards of phosphorus (inorganic P; Pi) were prepared (0.05–1.5 mg/mL) using KH2PO4 and read at 820 nm and a linear standard curve was generated (Figure S1 in File S1). The phospholipid concentration of the vesicle preparations was determined by a total phosphorus assay. The assay reagent was prepared fresh by mixing 1 part of 1% ascorbic acid with 6 parts of 0.42% ammonium molybdate•4H2O in H2SO4 and stored on ice. 7 µL of it was added to 3 µL of vesicle suspensions and incubated for 20 min at 45°C. […] The standard curve of phosphorus standards (Figure S1 in File S1) was used to determine the Pi concentration in a LUV preparation, and this was converted to phospholipid concentration (Table S1 in File S1) to adjust the preparations to the required 10 µM phospholipid concentration prior to peptide treatment.
# (§2) The calcein-filled LUVs were diluted with 10 mM Tris, 100 mM NaCl buffer (pH 7.4) to a final phospholipid concentration of 10 µM. The experiments were performed in a Varian Cary Eclipse fluorescence spectrophotometer with excitation and emission wavelengths of 496 nm and 515 nm, slit widths of […] and a PMT detector of 600 V. The peptides (PuroA, Pina-M, Pina-W→F and PuroB) were added to LUVs to a final peptide concentration of 8–125 µg/mL in 100 µL volumes and the fluorescence (F) monitored for 5 min at 60 s intervals. The total calcein fluorescence (FT) was determined by addition of 1.0% Triton X100. The dye leakage was calculated as % Leakage = ((F – F0)/(FT – F0)), F0 being fluorescence of each sample at T = 0.
# [2] = Calcein dye leakage from bacteria-mimicking LUVs; assay type: biochemical; conditions: LUVs 10 µM phospholipid, 10 mM Tris, 100 mM NaCl pH 7.4, 5 min, fluorescence 496/515 nm, no-peptide control 28.5, average of duplicate experiments
# Procedure: as §1, §2
substance,measurement,setting,value
"FPVTFRFFKFFKG-NH2 [Pina-W→F, PuroA-based peptide with all Trps substituted with Phe residues]",MIC against E. coli cells,E. coli cells,32 µg/mL and 32 ± 0 µg/mL
same,dye leakage from the DOPC LUVs (in words),"[1]; over all tested concentrations, even at high concentration",no significant leakage
same,% Calcein leakage from DOPC LUVs,[1]; peptide 8 µg/mL,28.0%
same,% Calcein leakage from DOPC LUVs,[1]; peptide 16 µg/mL,27.0%
same,% Calcein leakage from DOPC LUVs,[1]; peptide 32 µg/mL,27.0%
same,% Calcein leakage from DOPC LUVs,[1]; peptide 64 µg/mL,31.0%
same,% Calcein leakage from DOPC LUVs,"[1]; peptide 125 µg/mL (highest for PuroA, Pina-M, Pina-W→F)",36.0%
same,% Calcein leakage from DOPC:DOPG LUVs,[2]; peptide 8 µg/mL,29.2%
same,% Calcein leakage from DOPC:DOPG LUVs,[2]; peptide 16 µg/mL,32.0%
same,% Calcein leakage from DOPC:DOPG LUVs,[2]; peptide 32 µg/mL,64%
same,% Calcein leakage from DOPC:DOPG LUVs,[2]; peptide 64 µg/mL,78.0%
same,% Calcein leakage from DOPC:DOPG LUVs,[2]; peptide 125 µg/mL,81.0%
